According to patent publication US20230406831A1, “COMPOUNDS AND METHODS OF INHIBITING BACTERIAL CHAPERONIN SYSTEMS” (THE TRUSTEES OF INDIANA UNIVERSITY, priority 2020, published 2023):
Where two headings read alike, the source gives them in different places.

Experiments:
native MDH = target: T1, native MDH (Sus scrofa, UniProt P00346); assay: Native MDH enzymatic activity counter-screen; format: biochemical, pig; conditions: compounds added after refolding and EDTA quench, read-out: Biochemical Assay IC50 Native MDH Activity
T1 construct: soluble pig heart MDH from Roche, product #10127248001; purchased Roche 10127248001; host or cells: pig heart
T1 sequence (P00346 25-338): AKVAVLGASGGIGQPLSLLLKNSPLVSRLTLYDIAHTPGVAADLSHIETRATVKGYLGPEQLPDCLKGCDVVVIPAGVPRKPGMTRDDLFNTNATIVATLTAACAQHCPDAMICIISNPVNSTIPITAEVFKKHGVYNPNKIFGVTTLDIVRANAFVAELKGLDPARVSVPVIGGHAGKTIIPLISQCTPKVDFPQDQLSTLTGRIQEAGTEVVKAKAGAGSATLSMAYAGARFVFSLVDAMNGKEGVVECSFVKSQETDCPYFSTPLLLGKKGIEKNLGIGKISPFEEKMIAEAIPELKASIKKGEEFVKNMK
Experimental: Counter-screening compounds for inhibition of native MDH enzymatic activity.
Reagent Preparations & Assay Protocol: This assay was performed as described above for the GroEL/ES-dMDH refolding assay; however, the assay protocol differed in the sequence of compound addition to the assay plates. The refolding reactions were allowed to proceed for 45 min at 37° C. in the absence of test compounds (complete refolding of MDH occurs), then quenched with the EDTA stock. Compounds were then pin-transferred into the plates after the EDTA quenching step; thus, compounds effects are only possible by inhibiting the fully-refolded MDH reporter substrate. Next enzymatic activity of the refolded MDH was initiated by addition of 20 μL MDH enzymatic assay stock (20 mM sodium mesoxalate and 2.4 mM NADH in reaction buffer, 50 mM Tris pH 7.4, 50 mM KCl, 1 mM DTT), and followed by measuring the NADH absorbance in each well at 340 nm using a Molecular Devices SpectraMax Plus384 microplate reader
A340 nm measurements were recorded at 0.5 minutes (start point) and at successive time points until the amount of NADH consumed reached ˜90% (end point, generally between 20-35 minutes). Compounds were tested in 8-point, 3-fold dilution series (62.5 μM to 29 nM during the reporter reaction) in clear, flat-bottom 384-well microtiter plates.
DMSO was used as a negative control, and previously discovered native MDH inhibitors were used as positive controls. IC50 values for the test compounds were obtained by plotting the % inhibition results in GraphPad Prism 6 and analyzing by non-linear regression using the log (inhibitor) vs. response (variable slope) equation. Results presented represent the averages of IC50 values obtained from at least quadriplicate (duplicate of duplicate) replicates.

HSP60/10 = target: T2, HSP60/10 (Homo sapiens, UniProt P10809); assay: HSP60/10-mediated dMDH refolding assay; format: biochemical; conditions: 37° C., 1 mM ATP, read-out: Biochemical Assay IC50 HSP60/10-dMDH Refolding
T2 construct: octa-Histidine (His8) tag, TEV-cleavable (N, cleaved yes); made in house; host or cells: HSP60 in Rosetta 2 (DE3) E. coli; HSP10 in Rosetta 2 (DE3) pLysS
T2 sequence (P10809 27-573): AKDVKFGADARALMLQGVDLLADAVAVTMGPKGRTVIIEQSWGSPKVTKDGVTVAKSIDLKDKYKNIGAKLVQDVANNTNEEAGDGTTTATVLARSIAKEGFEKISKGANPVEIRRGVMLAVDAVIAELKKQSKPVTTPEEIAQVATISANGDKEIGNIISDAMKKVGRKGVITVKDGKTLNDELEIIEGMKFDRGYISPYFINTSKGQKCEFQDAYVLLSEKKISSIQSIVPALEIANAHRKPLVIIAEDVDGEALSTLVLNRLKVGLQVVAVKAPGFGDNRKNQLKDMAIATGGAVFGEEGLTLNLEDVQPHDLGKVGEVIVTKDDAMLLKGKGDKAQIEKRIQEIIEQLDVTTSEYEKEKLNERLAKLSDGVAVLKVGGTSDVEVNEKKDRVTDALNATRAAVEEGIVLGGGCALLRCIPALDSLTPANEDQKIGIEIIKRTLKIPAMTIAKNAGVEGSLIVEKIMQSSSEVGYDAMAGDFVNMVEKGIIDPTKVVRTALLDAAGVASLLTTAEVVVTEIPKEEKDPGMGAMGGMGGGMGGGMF
Experimental: (§1) Evaluation of compounds ability to inhibit GroEL/ES and HSP60/10-mediated dMDH refolding assays.
(§2) Reagent preparation: For these assays, four primary reagent stocks were prepared: 1) GroEL/ES-dMDH or HSP60/10-dMDH binary complex stock; 2) ATP initiation stock; 3) EDTA quench stock; 4) MDH enzymatic assay stock. Denatured MDH (dMDH) was prepared by 2-fold dilution of MDH (5 mg/ml, soluble pig heart MDH from Roche, product #10127248001) with denaturant buffer (7 M guanidine-HCl, 200 mM Tris, pH 7.4, and 50 mM DTT). MDH was completely denatured by incubating at room temperature for 45 min. The binary complex solutions were prepared by slowly adding the dMDH stock to a stirring stock with GroEL (or HSP60) in folding buffer (50 mM Tris-HCl, pH 7.4, 50 mM KCl, 10 mM MglC2, and 1 mM DTT), followed by addition of GroES (or HSP10). The binary complex stocks were prepared immediately prior to dispensing into the assay plates and had final protein concentrations of 83.3 nM GroEL (Mr 800 kDa) or HSP60 (Mr 400 kDa), 100 nM GroES or HSP10 (Mr 70 kDa), and 20 nM dMDH in folding buffer. For the ATP initiation stock, ATP solid was diluted into folding buffer to a final concentration of 2.5 mM. Quench solution contained 600 mM EDTA (pH 8.0). The MDH enzymatic assay stock consisted of 20 mM sodium mesoxalate and 2.4 mM NADH in reaction buffer (50 mM Tris-HCl, pH 7.4, 50 mM KC1, and 1 mM DTT).
(§3) Assay Protocol: First, 30 μL aliquots of the GroEL/ES-dMDH or HSP60/10-dMDH binary complex stocks were dispensed into clear, 384-well polystyrene plates. Next, 0.5 μL of the compound stocks (10 mM to 4.6 μM, 3-fold dilutions series in DMSO) were added by pin-transfer (V&P Scientific). The chaperonin-mediated refolding cycles were initiated by addition of 20 IA of ATP stock (reagent concentrations during refolding cycle: 50 nM GroEL or HSP60, 60 nM GroES or HSP10, 12 nM dMDH, 1 mM ATP, and compounds of 100 μM to 46 nM, 3-fold dilution series). The refolding reactions were incubated at 37° C. The incubation time was determined from refolding time-course control experiments until they reached ˜90% completion of refolding cycle — generally ˜20-40 min for GroEL/ES, and ˜40-60 min for HSP60/10). Next, the assay was quenched by addition of 10 μL of the EDTA to final concentration of 100 mM. […] A340 nm measurements were recorded at 0.5 minutes (start point) and at successive time points until the amount of NADH consumed reached ˜90% (end point, generally between 20-35 minutes). The differences between the start and end point A340 values were used to calculate the % inhibition of the GroEL/ES or HSP60/10 machinery by the compounds. IC50 values for the test compounds were obtained by plotting the % inhibition results in GraphPad Prism 6 and analyzing by non-linear regression using the log (inhibitor) vs. response (variable slope) equation. Results presented represent the averages of IC50 values obtained from at least quadriplicate (duplicate of duplicate) replicates. For results, see Tables 1, 2, and 3.

GroEL/ES = target: T3, GroEL/ES (Escherichia coli, UniProt P0A6F5); assay: GroEL/ES-mediated dMDH refolding assay; format: biochemical, E. coli
T3 construct: made in house; host or cells: GroEL in E. coli DH5a; GroES in E. coli BL21 (DE3)
T3 sequence (P0A6F5 2-548): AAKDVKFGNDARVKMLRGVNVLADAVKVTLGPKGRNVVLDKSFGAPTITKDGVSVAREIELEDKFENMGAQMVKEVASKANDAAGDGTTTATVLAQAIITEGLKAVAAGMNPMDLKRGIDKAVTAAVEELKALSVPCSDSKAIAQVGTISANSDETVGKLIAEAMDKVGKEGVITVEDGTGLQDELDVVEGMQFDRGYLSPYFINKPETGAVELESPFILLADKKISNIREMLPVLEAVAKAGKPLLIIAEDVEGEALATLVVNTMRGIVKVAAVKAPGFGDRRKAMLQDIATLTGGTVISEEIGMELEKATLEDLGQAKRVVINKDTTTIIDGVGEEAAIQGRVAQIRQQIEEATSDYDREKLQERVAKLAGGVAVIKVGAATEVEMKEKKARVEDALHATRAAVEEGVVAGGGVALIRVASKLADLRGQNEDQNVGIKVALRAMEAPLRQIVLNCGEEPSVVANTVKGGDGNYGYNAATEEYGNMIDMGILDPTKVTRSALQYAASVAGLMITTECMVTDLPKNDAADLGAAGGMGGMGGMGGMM
Experimental: as §1, §2, §3

| SMILES | IC50 (native MDH; Table 2) | IC50 (native MDH; Table 3) | IC50 (HSP60/10; Table 2) | IC50 (HSP60/10; Table 3) | IC50 (GroEL/ES) | IC50 (native MDH; Table 1) | IC50 (HSP60/10; Table 1) |
| --- | --- | --- | --- | --- | --- | --- | --- |
| COc1ccc(Cl)cc1C(=O)Nc1cc(Cl)c(C(C#N)c2ccc(Cl)cc2)cc1C (stereo not drawn) [Compound 57, 5-chloro-N-(5-chloro-4-((4-chlorophenyl)(cyano)methyl)-2-methylphenyl)-2-methoxybenzamide] | > 63 µM | > 63 µM | > 100 µM | > 100 µM | 59 µM | – | – |
| Cc1cc(C(C#N)c2ccc(Cl)cc2)c(Cl)cc1NC(=O)c1cc(Cl)ccc1O (stereo not drawn) [Compound 58, 5-chloro-N-(5-chloro-4-((4-chlorophenyl)(cyano)methyl)-2-methylphenyl)-2-hydroxybenzamide] | > 63 µM | > 63 µM | 40 µM | – | 24 µM | – | – |
| COc1c(Br)cccc1C(=O)Nc1cc(Cl)c(C(C#N)c2ccc(Cl)cc2)cc1C (stereo not drawn) [Compound 47, 3-bromo-N-(5-chloro-4-((4-chlorophenyl)(cyano)methyl)-2-methylphenyl)-2-methoxybenzamide] | > 63 µM | – | > 100 µM | – | 49 µM | – | – |
| N#CC(c1ccccc1)c1ccc(NC(=O)c2cc(Cl)ccc2O)cc1 (stereo not drawn) [Compound 85, 5-chloro-N-(4-(cyano(phenyl)methyl)phenyl)-2-hydroxybenzamide] | – | > 63 µM | – | 75 µM | 56 µM | – | – |
| O=C(Nc1ccc(Sc2nc3ccccc3s2)cc1)c1cc(Cl)ccc1O [Compound 97, N-(4-(benzo[d]thiazol-2-ylthio)phenyl)-5-chloro-2-hydroxybenzamide] | – | > 63 µM | – | 59 µM | 24 µM | – | – |
| COc1ccc(Cl)cc1C(=O)Nc1ccc(NC(C)=O)cc1 [Compound 104, N-(4-acetamidophenyl)-5-chloro-2-methoxybenzamide] | – | > 63 µM | – | > 100 µM | > 100 µM | – | – |
| COc1ccc(Cl)cc1C(=O)Nc1ccc(OCc2ccccc2)cc1 [Compound 102, N-(4-(benzyloxy)phenyl)-5-chloro-2-methoxybenzamide] | – | > 63 µM | – | > 100 µM | > 100 µM | – | – |
| COc1cccc(C(=O)Nc2cc(Cl)c(C(C#N)c3ccc(Cl)cc3)cc2C)c1 (stereo not drawn) [Compound 62, N-(5-chloro-4-((4-chlorophenyl)(cyano)methyl)-2-methylphenyl)-3-methoxybenzamide] | > 63 µM | – | > 100 µM | – | 67 µM | – | – |
| Cc1cc(C(C#N)c2ccc(Cl)cc2)c(Cl)cc1NC(=O)c1ccccc1[N+](=O)[O-] (stereo not drawn) [Compound 67, N-(5-chloro-4-((4-chlorophenyl)(cyano)methyl)-2-methylphenyl)-2-nitrobenzamide] | > 63 µM | – | > 100 µM | – | 43 µM | – | – |
| O=C(Nc1ccc(Oc2ccccc2)cc1)c1cc(Cl)ccc1O [Compound 93, 5-chloro-2-hydroxy-N-(4-phenoxyphenyl)benzamide] | – | > 63 µM | – | > 100 µM | 68 µM | – | – |
| COc1ccc(Cl)cc1C(=O)Nc1ccc(Oc2ccc(Cl)cc2)c(Cl)c1 [Compound 86, 5-chloro-N-(3-chloro-4-(4-chlorophenoxy)phenyl)-2-methoxybenzamide] | – | > 63 µM | – | > 100 µM | > 100 µM | – | – |
| CC(=O)Oc1ccccc1C(=O)Nc1ncc([N+](=O)[O-])s1 [Nitazoxanide, reference compound] | – | – | – | – | > 100 µM | > 63 µM | > 100 µM |
| CC(=O)Nc1ccc(NC(=O)c2cc(Cl)ccc2O)cc1 [Compound 105, N-(4-acetamidophenyl)-5-chloro-2-hydroxybenzamide] | – | > 63 µM | – | > 100 µM | > 100 µM | – | – |
| O=C(Nc1ccc(Oc2ccc(Cl)cc2)c(Cl)c1)c1cc(Cl)ccc1O [Compound 87, 5-chloro-N-(3-chloro-4-(4-chlorophenoxy)phenyl)-2-hydroxybenzamide] | – | > 63 µM | – | 9.5 µM | 30 µM | – | – |
| COc1ccc(Cl)cc1C(=O)Nc1ccc(C(C#N)c2ccccc2)cc1 (stereo not drawn) [Compound 84, 5-chloro-N-(4-(cyano(phenyl)methyl)phenyl)-2-methoxybenzamide] | – | > 63 µM | – | > 100 µM | 94 µM | – | – |
| Cc1cc(C(C#N)c2ccc(Cl)cc2)c(Cl)cc1NC(=O)c1cc(Cl)cc(Cl)c1O (stereo not drawn) [Compound 52, 3,5-dichloro-N-(5-chloro-4-((4-chlorophenyl)(cyano)methyl)-2-methylphenyl)-2-hydroxybenzamide] | 5.5 µM | – | 5.2 µM | – | 3.7 µM | – | – |
| O=C(Nc1ccccc1)c1cc(Cl)ccc1O [Compound 117, 5-chloro-2-hydroxy-N-phenylbenzamide] | – | > 63 µM | – | > 100 µM | > 100 µM | – | – |
| Cc1cc(C(C#N)c2ccc(Cl)cc2)c(Cl)cc1NC(=O)c1ccc(F)cc1 (stereo not drawn) [Compound 81, N-(5-chloro-4-((4-chlorophenyl)(cyano)methyl)-2-methylphenyl)-4-fluorobenzamide] | > 63 µM | – | > 100 µM | – | 77 µM | – | – |
| Cc1cc(C(C#N)c2ccc(Cl)cc2)c(Cl)cc1NC(=O)c1cccc(N)c1 (stereo not drawn) [Compound 71, 3-amino-N-(5-chloro-4-((4-chlorophenyl)(cyano)methyl)-2-methylphenyl)benzamide] | > 63 µM | – | > 100 µM | – | 51 µM | – | – |
| COc1c(Cl)cccc1C(=O)Nc1cc(Cl)c(C(C#N)c2ccc(Cl)cc2)cc1C (stereo not drawn) [Compound 53, 3-chloro-N-(5-chloro-4-((4-chlorophenyl)(cyano)methyl)-2-methylphenyl)-2-methoxybenzamide] | > 63 µM | – | > 100 µM | – | 81 µM | – | – |
